Test results taken from ChEMBL document CHEMBL4371021, “BH3 mimetics derived from Bim-BH3 domain core region show PTP1B inhibitory activity” (Bioorg Med Chem Lett, 2019).
Residues, ends and D or L forms follow the SMILES beside them.

What was measured:
[1] = target: T1, Tyrosine-protein phosphatase non-receptor type 1 (Homo sapiens) (UniProt P18031); test: Inhibition of recombinant human N-terminal poly histidine-tagged PTP1B (Glu2 to Asn321 residues) expressed in Escherichia coli at 40 umol/L using pNPP as substrate measured for 4 mins relative to control
T1 sequence (whole entry): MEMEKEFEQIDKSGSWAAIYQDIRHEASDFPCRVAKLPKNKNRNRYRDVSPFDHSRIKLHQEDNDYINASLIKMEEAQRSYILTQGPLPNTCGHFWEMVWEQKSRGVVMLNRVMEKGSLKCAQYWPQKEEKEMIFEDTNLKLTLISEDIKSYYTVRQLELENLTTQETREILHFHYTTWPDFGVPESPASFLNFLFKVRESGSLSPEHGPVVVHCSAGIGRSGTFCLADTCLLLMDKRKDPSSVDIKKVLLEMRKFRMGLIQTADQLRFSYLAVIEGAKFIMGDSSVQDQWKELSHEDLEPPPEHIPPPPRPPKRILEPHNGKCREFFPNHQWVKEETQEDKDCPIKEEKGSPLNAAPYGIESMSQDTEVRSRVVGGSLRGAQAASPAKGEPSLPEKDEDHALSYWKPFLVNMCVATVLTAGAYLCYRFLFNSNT

[2] = target: T2, Tyrosine-protein phosphatase non-receptor type 1 (Homo sapiens, UniProt P18031); test: Binding affinity to recombinant human N-terminal poly histidine-tagged PTP1B (Glu2 to Asn321 residues) expressed in Escherichia coli by surface plasmon resonance analysis
T2 sequence (P18031 whole entry): T1 sequence (whole entry)

[3] = target: T1, Tyrosine-protein phosphatase non-receptor type 1 (Homo sapiens); test: Binding affinity to recombinant human N-terminal poly histidine-tagged PTP1B (Glu2 to Asn321 residues) expressed in Escherichia coli assessed as association rate constant by surface plasmon resonance analysis
[4] = target: T1, Tyrosine-protein phosphatase non-receptor type 1 (Homo sapiens); test: Binding affinity to recombinant human N-terminal poly histidine-tagged PTP1B (Glu2 to Asn321 residues) expressed in Escherichia coli assessed as dissociation rate constant by surface plasmon resonance analysis

inhibition [1] [%] | Kd [2] [nM] | Ka [3] [×10⁴ /Ms] | Kdiss [4] [×10⁻⁴ /s] | Molecule
4.25 | – | – | – | CC[C@H](C)[C@H](NC(=O)COCCOCCOCCOCCOC)C(=O)N[C@@H](C)C(=O)N[C@@H](CCC(N)=O)C(=O)N[C@@H](CCC(=O)O)C(=O)N[C@@H](CC(C)C)C(=O)N[C@@H](CCCNC(=N)N)C(=O)N[C@@H](CCCNC(=N)N)C(=O)N[C@H](C(=O)NCC(=O)N[C@@H](CC(=O)O)C(=O)N[C@@H](CCC(=O)O)C(=O)N[C@@H](Cc1ccccc1)C(N)=O)[C@@H](C)CC (HELM PEPTIDE1{[COCCOCCOCCOCCOCC(=O)[*:2]].I.A.Q.E.L.R.R.I.G.D.E.F.[am]}$$$$V2.0)
2.32 | 26.9 | 2.37 | 6.38 | Ac-IWIAQELRRIGDEFNA-NH2
